Reference: publication PMC12300041, “Tricyclic Isatin Derivatives as Anti-Inflammatory Compounds with High Kinase Binding Affinity” (Molecules, 2025)

Legend:
Test in all cases: KINOMEscan
Type in all cases: binding
[1] = molecular target: T1, RPS6KA5 (Kin. Dom.2-C-term.) (Homo sapiens, UniProt O75582)
T1 construct: RPS6KA5 (Kin. Dom.2-C-term.); purchased Eurofins DiscoverX KINOMEscan
Procedure, shortened: (§1)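 Active-site competition format. Unbound kinase fraction measured by affinity-ligand capture plus qPCR after 1 h at RT. Kd from 12-point half-log titration, maximum 33 μM.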

ERK4 = molecular target: T2, ERK4 (Homo sapiens, UniProt P31152)
T2 construct: purchased Eurofins DiscoverX KINOMEscan
Procedure, shortened: as §1

WEE1 = molecular target: T3, WEE1 (Homo sapiens, UniProt P30291)
T3 construct: purchased Eurofins DiscoverX KINOMEscan
Procedure, shortened: as §1

EGFR (T790M) = molecular target: T4, EGFR (T790M) (Homo sapiens, UniProt P00533, T790M)
T4 construct: purchased Eurofins DiscoverX KINOMEscan
Procedure, shortened: as §1

MEK1 = molecular target: T5, MEK1 (Homo sapiens, UniProt Q02750)
T5 construct: purchased Eurofins DiscoverX KINOMEscan
Procedure, shortened: as §1

PRKCQ = molecular target: T6, PRKCQ (Homo sapiens, UniProt Q04759)
T6 construct: purchased Eurofins DiscoverX KINOMEscan
Procedure, shortened: as §1

TLK1 = molecular target: T7, TLK1 (Homo sapiens, UniProt Q9UKI8)
T7 construct: purchased Eurofins DiscoverX KINOMEscan
Procedure, shortened: as §1

GSK3A = molecular target: T8, GSK3A (Homo sapiens, UniProt P49840)
T8 construct: purchased Eurofins DiscoverX KINOMEscan
Procedure, shortened: as §1

ABL1 (F317L)-P = molecular target: T9, ABL1 (F317L)-P (Homo sapiens, UniProt P00519, F317L)
T9 construct: purchased Eurofins DiscoverX KINOMEscan
Procedure, shortened: as §1

SGK = molecular target: T10, SGK (Homo sapiens, UniProt O00141)
T10 construct: purchased Eurofins DiscoverX KINOMEscan
Procedure, shortened: as §1

CLK3 = molecular target: T11, CLK3 (Homo sapiens, UniProt P49761)
T11 construct: purchased Eurofins DiscoverX KINOMEscan
Procedure, shortened: as §1

JNK2 = molecular target: T12, JNK2 (Homo sapiens, UniProt P45984)
T12 construct: purchased Eurofins DiscoverX KINOMEscan
Procedure, shortened: as §1

CDK4-cyclinD3 = molecular target: T13, CDK4-cyclinD3 (Homo sapiens, UniProt P11802)
T13 construct: purchased Eurofins DiscoverX KINOMEscan
Procedure, shortened: as §1

EPHB6 = molecular target: T14, EPHB6 (Homo sapiens, UniProt O15197)
T14 construct: purchased Eurofins DiscoverX KINOMEscan
Procedure, shortened: as §1

GAK = molecular target: T15, GAK (Homo sapiens, UniProt O14976)
T15 construct: purchased Eurofins DiscoverX KINOMEscan
Procedure, shortened: as §1

TBK1 = molecular target: T16, TBK1 (Homo sapiens, UniProt Q9UHD2)
T16 construct: purchased Eurofins DiscoverX KINOMEscan
Procedure, shortened: as §1

INSR = molecular target: T17, INSR (Homo sapiens, UniProt P06213)
T17 construct: purchased Eurofins DiscoverX KINOMEscan
Procedure, shortened: as §1

ABL2 = molecular target: T18, ABL2 (Homo sapiens, UniProt P42684)
T18 construct: purchased Eurofins DiscoverX KINOMEscan
Procedure, shortened: as §1

KIT = molecular target: T19, KIT (Homo sapiens, UniProt P10721)
T19 construct: purchased Eurofins DiscoverX KINOMEscan
Procedure, shortened: as §1

STK36 = molecular target: T20, STK36 (Homo sapiens, UniProt Q9NRP7)
T20 construct: purchased Eurofins DiscoverX KINOMEscan
Procedure, shortened: as §1

PIK3CA = molecular target: T21, PIK3CA (Homo sapiens, UniProt P42336)
T21 construct: purchased Eurofins DiscoverX KINOMEscan
Procedure, shortened: as §1

PYK2 = molecular target: T22, PYK2 (Homo sapiens, UniProt Q14289)
T22 construct: purchased Eurofins DiscoverX KINOMEscan
Procedure, shortened: as §1

KIT (D816V) = molecular target: T23, KIT (D816V) (Homo sapiens, UniProt P10721, D816V)
T23 construct: purchased Eurofins DiscoverX KINOMEscan
Procedure, shortened: as §1

ABL1 (H396P)-non-P = molecular target: T24, ABL1 (H396P)-non-P (Homo sapiens, UniProt P00519, H396P)
T24 construct: purchased Eurofins DiscoverX KINOMEscan
Procedure, shortened: as §1

JNK1 = molecular target: T25, JNK1 (Homo sapiens, UniProt P45983)
T25 construct: purchased Eurofins DiscoverX KINOMEscan
Procedure, shortened: as §1

VPS34 = molecular target: T26, VPS34 (Homo sapiens, UniProt Q8NEB9)
T26 construct: purchased Eurofins DiscoverX KINOMEscan
Procedure, shortened: as §1

PHKG1 = molecular target: T27, PHKG1 (Homo sapiens, UniProt Q16816)
T27 construct: purchased Eurofins DiscoverX KINOMEscan
Procedure, shortened: as §1

SGK2 = molecular target: T28, SGK2 (Homo sapiens, UniProt Q9HBY8)
T28 construct: purchased Eurofins DiscoverX KINOMEscan
Procedure, shortened: as §1

MEK2 = molecular target: T29, MEK2 (Homo sapiens, UniProt P36507)
T29 construct: purchased Eurofins DiscoverX KINOMEscan
Procedure, shortened: as §1

FLT3 (D835H) = molecular target: T30, FLT3 (D835H) (Homo sapiens, UniProt P36888, D835H)
T30 construct: purchased Eurofins DiscoverX KINOMEscan
Procedure, shortened: as §1

ERBB2 = molecular target: T31, ERBB2 (Homo sapiens, UniProt P04626)
T31 construct: purchased Eurofins DiscoverX KINOMEscan
Procedure, shortened: as §1

FLT4 = molecular target: T32, FLT4 (Homo sapiens, UniProt P35916)
T32 construct: purchased Eurofins DiscoverX KINOMEscan
Procedure, shortened: as §1

TGFBR2 = molecular target: T33, TGFBR2 (Homo sapiens, UniProt P37173)
T33 construct: purchased Eurofins DiscoverX KINOMEscan
Procedure, shortened: as §1

GRK3 = molecular target: T34, GRK3 (Homo sapiens, UniProt P35626)
T34 construct: purchased Eurofins DiscoverX KINOMEscan
Procedure, shortened: as §1

CAMK4 = molecular target: T35, CAMK4 (Homo sapiens, UniProt Q16566)
T35 construct: purchased Eurofins DiscoverX KINOMEscan
Procedure, shortened: as §1

MEK6 = molecular target: T36, MEK6 (Homo sapiens, UniProt P52564)
T36 construct: purchased Eurofins DiscoverX KINOMEscan
Procedure, shortened: as §1

SYK = molecular target: T37, SYK (Homo sapiens, UniProt P43405)
T37 construct: purchased Eurofins DiscoverX KINOMEscan
Procedure, shortened: as §1

NDR1 = molecular target: T38, NDR1 (Homo sapiens, UniProt Q15208)
T38 construct: purchased Eurofins DiscoverX KINOMEscan
Procedure, shortened: as §1

ARK5 = molecular target: T39, ARK5 (Homo sapiens, UniProt O60285)
T39 construct: purchased Eurofins DiscoverX KINOMEscan
Procedure, shortened: as §1

T25 sequence (P45983 whole entry): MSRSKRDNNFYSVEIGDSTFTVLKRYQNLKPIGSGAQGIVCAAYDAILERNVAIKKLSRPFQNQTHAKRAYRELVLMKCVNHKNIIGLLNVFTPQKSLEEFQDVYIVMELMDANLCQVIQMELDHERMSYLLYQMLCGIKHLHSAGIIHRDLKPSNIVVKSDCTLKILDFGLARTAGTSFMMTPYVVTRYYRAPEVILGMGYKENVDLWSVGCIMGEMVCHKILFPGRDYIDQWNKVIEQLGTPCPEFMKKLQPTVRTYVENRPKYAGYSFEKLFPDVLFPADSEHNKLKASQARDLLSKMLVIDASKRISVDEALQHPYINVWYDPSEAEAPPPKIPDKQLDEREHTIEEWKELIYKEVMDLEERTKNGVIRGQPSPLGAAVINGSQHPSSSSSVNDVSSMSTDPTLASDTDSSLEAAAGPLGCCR
T26 sequence (Q8NEB9 whole entry): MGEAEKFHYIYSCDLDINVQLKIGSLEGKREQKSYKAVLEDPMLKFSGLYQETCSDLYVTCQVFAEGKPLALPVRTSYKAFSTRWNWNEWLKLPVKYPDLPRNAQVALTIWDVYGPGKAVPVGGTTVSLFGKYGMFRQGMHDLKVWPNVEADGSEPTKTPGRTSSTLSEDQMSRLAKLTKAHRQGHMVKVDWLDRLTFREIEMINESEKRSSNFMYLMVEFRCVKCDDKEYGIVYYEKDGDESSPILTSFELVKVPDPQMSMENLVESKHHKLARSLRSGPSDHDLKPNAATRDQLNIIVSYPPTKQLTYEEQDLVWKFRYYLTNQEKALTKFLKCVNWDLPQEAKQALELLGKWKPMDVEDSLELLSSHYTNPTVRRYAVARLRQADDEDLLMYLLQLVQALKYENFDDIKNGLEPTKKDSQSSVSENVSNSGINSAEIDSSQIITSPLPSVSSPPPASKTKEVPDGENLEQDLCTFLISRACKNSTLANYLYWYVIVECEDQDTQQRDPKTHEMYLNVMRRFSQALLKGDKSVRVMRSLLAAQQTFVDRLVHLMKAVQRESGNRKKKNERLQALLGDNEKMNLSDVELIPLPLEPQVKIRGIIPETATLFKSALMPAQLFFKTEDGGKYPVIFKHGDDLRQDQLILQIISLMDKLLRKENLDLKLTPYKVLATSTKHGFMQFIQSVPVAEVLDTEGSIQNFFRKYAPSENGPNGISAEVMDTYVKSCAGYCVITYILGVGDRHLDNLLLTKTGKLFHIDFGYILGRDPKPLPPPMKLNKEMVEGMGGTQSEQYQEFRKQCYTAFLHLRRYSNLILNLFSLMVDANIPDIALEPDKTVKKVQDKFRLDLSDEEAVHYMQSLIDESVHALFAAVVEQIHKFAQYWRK
T4 sequence (P00533 25-1210 T790M): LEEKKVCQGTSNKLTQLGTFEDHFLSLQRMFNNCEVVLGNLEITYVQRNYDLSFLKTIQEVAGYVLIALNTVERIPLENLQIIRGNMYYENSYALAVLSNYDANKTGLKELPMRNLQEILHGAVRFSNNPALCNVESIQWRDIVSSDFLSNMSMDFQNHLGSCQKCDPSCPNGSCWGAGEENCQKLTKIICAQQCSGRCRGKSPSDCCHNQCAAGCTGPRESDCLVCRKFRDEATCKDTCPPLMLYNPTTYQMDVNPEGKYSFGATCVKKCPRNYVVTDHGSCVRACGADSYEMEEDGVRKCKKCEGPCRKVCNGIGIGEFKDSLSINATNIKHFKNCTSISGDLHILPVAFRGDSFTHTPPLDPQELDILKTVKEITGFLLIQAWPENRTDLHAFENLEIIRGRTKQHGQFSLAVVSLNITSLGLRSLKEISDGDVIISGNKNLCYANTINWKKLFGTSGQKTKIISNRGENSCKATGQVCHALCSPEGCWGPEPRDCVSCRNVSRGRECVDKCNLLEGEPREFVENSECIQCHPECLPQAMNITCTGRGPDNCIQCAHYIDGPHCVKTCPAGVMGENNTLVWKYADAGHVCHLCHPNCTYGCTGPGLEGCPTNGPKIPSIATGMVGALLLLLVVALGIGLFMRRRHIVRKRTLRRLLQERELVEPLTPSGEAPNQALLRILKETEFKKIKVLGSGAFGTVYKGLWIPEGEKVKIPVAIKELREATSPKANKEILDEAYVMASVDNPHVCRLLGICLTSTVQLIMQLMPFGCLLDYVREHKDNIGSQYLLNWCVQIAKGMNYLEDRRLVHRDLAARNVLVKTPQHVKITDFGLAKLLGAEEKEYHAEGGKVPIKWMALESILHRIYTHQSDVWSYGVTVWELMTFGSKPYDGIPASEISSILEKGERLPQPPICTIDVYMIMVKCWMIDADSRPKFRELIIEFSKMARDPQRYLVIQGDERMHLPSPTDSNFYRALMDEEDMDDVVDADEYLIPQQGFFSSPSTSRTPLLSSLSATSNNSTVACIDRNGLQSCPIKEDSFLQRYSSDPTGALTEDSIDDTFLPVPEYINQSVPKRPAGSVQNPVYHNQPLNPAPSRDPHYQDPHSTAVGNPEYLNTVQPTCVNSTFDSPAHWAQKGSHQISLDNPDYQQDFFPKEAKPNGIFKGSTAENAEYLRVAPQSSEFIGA
T13 sequence (P11802 whole entry): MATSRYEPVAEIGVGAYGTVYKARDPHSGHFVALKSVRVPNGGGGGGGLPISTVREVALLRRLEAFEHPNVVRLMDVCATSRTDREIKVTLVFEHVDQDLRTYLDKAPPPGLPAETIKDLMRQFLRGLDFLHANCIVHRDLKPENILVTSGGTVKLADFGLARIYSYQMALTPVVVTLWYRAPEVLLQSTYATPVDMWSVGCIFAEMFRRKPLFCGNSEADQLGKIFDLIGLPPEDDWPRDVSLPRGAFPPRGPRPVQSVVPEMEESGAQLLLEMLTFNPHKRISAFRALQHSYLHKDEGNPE
T13 sequence (P30281 whole entry partner): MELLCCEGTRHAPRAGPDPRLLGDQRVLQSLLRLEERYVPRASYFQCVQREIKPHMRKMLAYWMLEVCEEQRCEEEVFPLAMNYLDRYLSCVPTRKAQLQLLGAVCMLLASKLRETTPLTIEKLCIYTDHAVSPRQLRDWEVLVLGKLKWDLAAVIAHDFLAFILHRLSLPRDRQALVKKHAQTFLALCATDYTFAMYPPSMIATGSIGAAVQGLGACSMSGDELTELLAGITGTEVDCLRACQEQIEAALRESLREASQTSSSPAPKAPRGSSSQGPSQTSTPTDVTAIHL
T10 sequence (O00141 whole entry): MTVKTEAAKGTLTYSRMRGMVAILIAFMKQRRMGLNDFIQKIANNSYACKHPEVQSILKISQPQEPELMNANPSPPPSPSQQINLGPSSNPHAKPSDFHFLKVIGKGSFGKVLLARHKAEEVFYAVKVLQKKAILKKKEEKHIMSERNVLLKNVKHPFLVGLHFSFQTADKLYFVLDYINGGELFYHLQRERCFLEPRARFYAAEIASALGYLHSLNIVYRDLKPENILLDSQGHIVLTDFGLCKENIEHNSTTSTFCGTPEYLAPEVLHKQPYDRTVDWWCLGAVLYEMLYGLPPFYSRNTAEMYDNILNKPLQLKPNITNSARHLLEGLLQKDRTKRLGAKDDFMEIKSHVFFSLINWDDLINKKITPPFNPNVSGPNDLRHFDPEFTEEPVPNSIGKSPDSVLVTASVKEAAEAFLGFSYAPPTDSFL
T11 sequence (P49761 whole entry): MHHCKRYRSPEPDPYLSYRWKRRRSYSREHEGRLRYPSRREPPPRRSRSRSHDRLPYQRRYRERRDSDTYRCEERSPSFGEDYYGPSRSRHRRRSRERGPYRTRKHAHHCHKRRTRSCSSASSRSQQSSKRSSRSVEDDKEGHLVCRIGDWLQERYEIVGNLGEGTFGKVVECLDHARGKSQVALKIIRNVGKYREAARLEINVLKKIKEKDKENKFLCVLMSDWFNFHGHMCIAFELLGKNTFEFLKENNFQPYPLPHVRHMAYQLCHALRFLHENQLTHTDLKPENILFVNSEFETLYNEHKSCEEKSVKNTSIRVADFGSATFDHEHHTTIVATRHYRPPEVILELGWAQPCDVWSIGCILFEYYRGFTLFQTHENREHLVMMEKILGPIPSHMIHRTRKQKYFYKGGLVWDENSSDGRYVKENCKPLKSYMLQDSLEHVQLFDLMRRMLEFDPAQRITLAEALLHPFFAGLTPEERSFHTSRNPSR
T12 sequence (P45984 whole entry): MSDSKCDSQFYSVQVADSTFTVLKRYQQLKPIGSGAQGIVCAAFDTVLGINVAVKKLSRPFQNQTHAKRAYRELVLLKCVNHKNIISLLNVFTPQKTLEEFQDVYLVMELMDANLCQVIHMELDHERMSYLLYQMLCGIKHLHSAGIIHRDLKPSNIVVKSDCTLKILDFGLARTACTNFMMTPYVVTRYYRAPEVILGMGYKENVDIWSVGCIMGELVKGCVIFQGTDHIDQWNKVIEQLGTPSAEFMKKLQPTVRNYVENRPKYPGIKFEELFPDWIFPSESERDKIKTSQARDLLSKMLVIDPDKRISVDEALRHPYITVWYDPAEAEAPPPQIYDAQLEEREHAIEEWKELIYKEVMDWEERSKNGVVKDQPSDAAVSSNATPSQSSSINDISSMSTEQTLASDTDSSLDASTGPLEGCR
T36 sequence (P52564 whole entry): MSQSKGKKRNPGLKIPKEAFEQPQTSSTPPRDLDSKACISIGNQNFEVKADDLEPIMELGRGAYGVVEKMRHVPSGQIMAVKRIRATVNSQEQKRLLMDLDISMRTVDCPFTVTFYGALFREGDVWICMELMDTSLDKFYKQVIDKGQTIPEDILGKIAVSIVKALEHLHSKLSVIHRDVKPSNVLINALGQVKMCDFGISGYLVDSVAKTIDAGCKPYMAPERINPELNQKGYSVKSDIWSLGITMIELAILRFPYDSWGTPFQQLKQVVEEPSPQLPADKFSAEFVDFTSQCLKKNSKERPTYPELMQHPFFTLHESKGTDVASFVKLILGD

SMILES: O=C1Nc2c(cc([N+](=O)[O-])c3c2CCCC3)C1=NO [Compound 5d, 3-(Hydroxyimino)-5-nitro-1,3,6,7,8,9-hexahydro-2H-benzo[g]indol-2-one]
- inhibition at 10 µM [1]: 89.4%
- inhibition at 10 µM (ERK4): 0%
- inhibition at 10 µM (WEE1): 16%
- inhibition at 10 µM (EGFR (T790M)): 0%
- inhibition at 10 µM (MEK1): 93.1%
- inhibition at 10 µM (PRKCQ): 7%
- inhibition at 10 µM (TLK1): 19%
- inhibition at 10 µM (GSK3A): 57%
- inhibition at 10 µM (ABL1 (F317L)-P; first of two lines printed ABL1 (F317L)-P): 23%
- inhibition at 10 µM (ABL1 (F317L)-P; second of two lines printed ABL1 (F317L)-P): 20%
- inhibition at 10 µM (SGK): 91.1%
- inhibition at 10 µM (CLK3): 19%
- inhibition at 10 µM (JNK2): 49%
- inhibition at 10 µM (CDK4-cyclinD3): 22%
- inhibition at 10 µM (EPHB6): 80%
- inhibition at 10 µM (GAK): 49%
- inhibition at 10 µM (TBK1): 46%
- inhibition at 10 µM (INSR): 1%
- inhibition at 10 µM (ABL2): 2%
- inhibition at 10 µM (KIT): 0%
- inhibition at 10 µM (STK36): 10%
- inhibition at 10 µM (PIK3CA): 0%
- inhibition at 10 µM (PYK2): 0%
- inhibition at 10 µM (KIT (D816V)): 22%
- inhibition at 10 µM (ABL1 (H396P)-non-P): 65%
- inhibition at 10 µM (JNK1): 76%
- inhibition at 10 µM (VPS34): 27%
- inhibition at 10 µM (PHKG1): 0%
- inhibition at 10 µM (SGK2): 88%
- inhibition at 10 µM (MEK2): 87%
- inhibition at 10 µM (FLT3 (D835H)): 35%
- inhibition at 10 µM (ERBB2): 29%
- inhibition at 10 µM (FLT4): 8%
- inhibition at 10 µM (TGFBR2): 24%
- inhibition at 10 µM (GRK3): 77%
- inhibition at 10 µM (CAMK4): 7%
- inhibition at 10 µM (MEK6): 3%
- inhibition at 10 µM (SYK): 20%
- inhibition at 10 µM (NDR1): 34%
- inhibition at 10 µM (ARK5): 24%
